Laboratory results from PubChem BioAssay AID248 (DTP/NCI, 2004).
Where “and” joins values, the source holds several entries; their conditions need not be identical. Equal entries are not always repeated. Inconclusive results and toxic doses are left out. Cut-off read from the data, not from the text of the source: active = T/C of 150% or more; inactive = T/C below 125%.

Test system: L1210 leukemia ip in BDF1 mice, survival T/C
Assay: NCI In Vivo Anticancer Drug Screen. Data for tumor model L1210 Leukemia (intraperitoneal) in B6D2F1 (BDF1) mice
Conditions: endpoint: mean survival time, higher = longer survival
In short: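 Tumor was transplanted into mice, which were then dosed with test compound or vehicle alone. Survival was recorded for each group, and the treated figure was expressed relative to the control figure.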

[1] = dose: 100.0 mg/kg/injection, schedule: Q01DX001 (ip), vehicle: Klucel (hydroxypropylcellulose) (HPC)
[2] = dose: 100.0 mg/kg/injection, schedule: Q04DX003 (ip), vehicle: Klucel (hydroxypropylcellulose) (HPC)
[3] = dose: 200.0 mg/kg/injection, schedule: Q04DX003 (ip), vehicle: Klucel (hydroxypropylcellulose) (HPC)
[4] = dose: 400.0 mg/kg/injection, schedule: Q04DX003 (ip), vehicle: Klucel (hydroxypropylcellulose) (HPC)
[5] = dose: 100.0 mg/kg/injection, schedule: Q01DX009 (ip), vehicle: saline with Tween-80
[6] = dose: 100.0 mg/kg/injection, schedule: Q04DX003 (ip), vehicle: saline with Tween-80
[7] = dose: 200.0 mg/kg/injection, schedule: Q04DX003 (ip), vehicle: saline with Tween-80
[8] = dose: 400.0 mg/kg/injection, schedule: Q04DX003 (ip), vehicle: saline with Tween-80
[9] = dose: 100.0 mg/kg/injection, schedule: Q01DX009 (ip), vehicle: saline
[10] = dose: 100.0 mg/kg/injection, schedule: Q04DX003 (ip), vehicle: saline
[11] = dose: 200.0 mg/kg/injection, schedule: Q01DX009 (ip), vehicle: saline
[12] = dose: 200.0 mg/kg/injection, schedule: Q04DX003 (ip), vehicle: saline
[13] = dose: 400.0 mg/kg/injection, schedule: Q04DX003 (ip), vehicle: saline
[14] = dose: 50.0 mg/kg/injection, schedule: Q01DX009 (ip), vehicle: Klucel (hydroxypropylcellulose) (HPC)
[15] = dose: 100.0 mg/kg/injection, schedule: Q01DX009 (ip), vehicle: Klucel (hydroxypropylcellulose) (HPC)
[16] = dose: 200.0 mg/kg/injection, schedule: Q01DX009 (ip), vehicle: Klucel (hydroxypropylcellulose) (HPC)
[17] = dose: 100.0 mg/kg/injection, schedule: Q01DX001 (ip), vehicle: saline
[18] = dose: 200.0 mg/kg/injection, schedule: Q01DX001 (ip), vehicle: saline
[19] = dose: 400.0 mg/kg/injection, schedule: Q01DX001 (ip), vehicle: saline
[20] = dose: 50.0 mg/kg/injection, schedule: Q01DX009 (ip), vehicle: saline with Tween-80

Measured: T/C

O=c1c(C(Cl)Cl)nc2ccccc2n1O
inactive: [1] 95 % of control | dose: 200.0 mg/kg/injection, schedule: Q01DX001 (ip), vehicle: Klucel (hydroxypropylcellulose) (HPC) 98 % of control | dose: 400.0 mg/kg/injection, schedule: Q01DX001 (ip), vehicle: Klucel (hydroxypropylcellulose) (HPC) 101 % of control

CCCCCCCCCCCCCCOc1ccc(C(=S)N2CCOCC2)cc1OC
inactive: [2] 100 % of control | [3] 100 % of control | [4] 94 % of control

N#CCCC(C#N)(CCC#N)c1ccc([N+](=O)[O-])cc1
inactive: [5] 102 % of control | [6] 98 % of control | dose: 200.0 mg/kg/injection, schedule: Q01DX009 (ip), vehicle: saline with Tween-80 107 % of control | [7] 98 % of control | dose: 400.0 mg/kg/injection, schedule: Q01DX009 (ip), vehicle: saline with Tween-80 98 % of control | [8] 98 % of control

CN(C)C(=O)c1cccc([N+](=O)[O-])c1
inactive: [6] 97 % of control | [7] 94 % of control

COc1ccccc1NC(=O)CC(=O)c1ccc([N+](=O)[O-])cc1
inactive: dose: 100.0 mg/kg/injection, schedule: Q01DX009 (ip), vehicle: saline sonified 103 % of control | [2] 101 % of control | dose: 200.0 mg/kg/injection, schedule: Q01DX009 (ip), vehicle: saline sonified 100 % of control | [3] 105 % of control | dose: 400.0 mg/kg/injection, schedule: Q01DX009 (ip), vehicle: saline sonified 103 % of control | [4] 98 % of control

O=CNNC(=O)c1cnccn1
inactive: [9] 104 % of control | [10] 103 % of control | dose: 177.0 mg/kg/injection, schedule: Q01DX009 (ip), vehicle: saline 117 % of control | [11] 115 % of control | [12] 97 % of control | dose: 266.0 mg/kg/injection, schedule: Q01DX009 (ip), vehicle: saline 114 % of control | [13] 120 % of control

CCCCCCCCc1ccc(NNC(N)=S)cc1
inactive: dose: 3.12 mg/kg/injection, schedule: Q01DX009 (ip), vehicle: saline 93 % of control | dose: 6.25 mg/kg/injection, schedule: Q01DX009 (ip), vehicle: saline 101 % of control and 92 % of control | dose: 12.5 mg/kg/injection, schedule: Q01DX009 (ip), vehicle: saline 103 % of control | dose: 25.0 mg/kg/injection, schedule: Q01DX009 (ip), vehicle: saline 100 % of control

CCCCN(CCCC)CCNc1cc(C)nc(/N=C(\N)Nc2ccc(Cl)c(Cl)c2)n1
inactive: dose: 38.0 mg/kg/injection, schedule: Q01DX009 (ip), vehicle: other 91 % of control | dose: 38.0 mg/kg/injection, schedule: Q04DX003 (ip), vehicle: other 104 % of control | dose: 75.0 mg/kg/injection, schedule: Q01DX001 (ip), vehicle: other 101 % of control | dose: 75.0 mg/kg/injection, schedule: Q01DX009 (ip), vehicle: other 105 % of control | dose: 75.0 mg/kg/injection, schedule: Q04DX003 (ip), vehicle: other 114 % of control | dose: 150.0 mg/kg/injection, schedule: Q01DX001 (ip), vehicle: other 103 % of control | dose: 150.0 mg/kg/injection, schedule: Q04DX003 (ip), vehicle: other 87 % of control | dose: 300.0 mg/kg/injection, schedule: Q01DX001 (ip), vehicle: other 95 % of control

CCNC(=S)N(CC)CC
inactive: [14] 104 % of control | [15] 102 % of control | [6] 100 % of control | [16] 114 % of control | [7] 103 % of control

N#CCc1nc2ccccc2[nH]1
inactive: [14] 97 % of control | dose: 50.0 mg/kg/injection, schedule: Q04DX003 (ip), vehicle: Klucel (hydroxypropylcellulose) (HPC) 101 % of control | [1] 102 % of control | [15] 98 % of control | [2] 98 % of control | [16] 88 % of control | [3] 101 % of control

O=C1CC(N2C(=O)C3C4C=CC(CC4)C3C2=O)C(=O)N1 (stereo not drawn)
inactive: [10] 97 % of control | [12] 97 % of control | [13] 97 % of control

Cc1c(/C=N/NC(N)=S)[nH]c(=O)[nH]c1=O
inactive: [17] 94 % of control | [18] 94 % of control | [19] 109 % of control

COC1=C(Br)C(=O)c2ncccc2C1=O
inactive: dose: 5.0 mg/kg/injection, schedule: Q01DX001 (ip), vehicle: carboxymethylcellulose (CMC) 104 % of control | dose: 20.0 mg/kg/injection, schedule: Q01DX001 (ip), vehicle: carboxymethylcellulose (CMC) 94 % of control

O=C1CCC(=O)N1[N+](=O)[O-]
inactive: dose: 50.0 mg/kg/injection, schedule: Q01DX001 (ip), vehicle: saline 95 % of control and 89 % of control | [17] 97 % of control and 101 % of control | [18] 103 % of control and 107 % of control

Nc1nc2c(ncn2C2OC(COP(=O)(O)OC3C(COP(=O)(O)O)OC(n4cnc5c(=O)[nH]c(N)nc54)C3O)C(O)C2O)c(=O)[nH]1 (stereo not drawn) (tested in a mixture with another compound)
inactive: dose: 2.5 mg/kg/injection, schedule: Q01DX009 (ip), vehicle: other 108 % of control | dose: 5.0 mg/kg/injection, schedule: Q01DX009 (ip), vehicle: other 105 % of control | dose: 10.0 mg/kg/injection, schedule: Q01DX009 (ip), vehicle: other 111 % of control

COC1=C(Br)C(=O)C(Br)=C(OC)C1=O
inactive: dose: 100.0 mg/kg/injection, schedule: Q04DX002 (ip), vehicle: other 107 % of control | dose: 200.0 mg/kg/injection, schedule: Q04DX002 (ip), vehicle: other 96 % of control

[N-]=[N+]=[N-]
inactive: dose: 10.0 mg/kg/injection, schedule: Q01DX001 (ip), vehicle: saline 100 % of control | dose: 20.0 mg/kg/injection, schedule: Q01DX001 (ip), vehicle: saline 100 % of control

N#CCCCC(=O)c1ccccc1
inactive: dose: 25.0 mg/kg/injection, schedule: Q01DX009 (ip), vehicle: saline with Tween-80 96 % of control | [20] 102 % of control | [5] 92 % of control

O=C(CN1CCCCC1)N1CCN(C(=O)CN2CCCCC2)CC1
inactive: dose: 44.0 mg/kg/injection, schedule: Q01DX001 (ip), vehicle: carboxymethylcellulose (CMC) 98 % of control and 100 % of control | dose: 50.0 mg/kg/injection, schedule: Q01DX001 (ip), vehicle: carboxymethylcellulose (CMC) 103 % of control | dose: 67.0 mg/kg/injection, schedule: Q01DX001 (ip), vehicle: carboxymethylcellulose (CMC) 87 % of control and 91 % of control | dose: 100.0 mg/kg/injection, schedule: Q01DX001 (ip), vehicle: carboxymethylcellulose (CMC) 96 % of control | dose: 150.0 mg/kg/injection, schedule: Q01DX001 (ip), vehicle: carboxymethylcellulose (CMC) 91 % of control | dose: 200.0 mg/kg/injection, schedule: Q01DX001 (ip), vehicle: carboxymethylcellulose (CMC) 113 % of control | dose: 400.0 mg/kg/injection, schedule: Q01DX001 (ip), vehicle: carboxymethylcellulose (CMC) 103 % of control

OCC1OC(n2cnc3cncnc32)CC1O (stereo not drawn)
inactive: [17] 103 % of control | [18] 97 % of control | [19] 107 % of control

CC1CCC(NC2=NCCO2)C(C)C1 (stereo not drawn)
inactive: [6] 91 % of control

CC1CCC2CON(C(C)(C)C)C2C1 (stereo not drawn)
inactive: [20] 106 % of control | [5] 107 % of control | [6] 103 % of control | [7] 97 % of control and 101 % of control | [8] 94 % of control

O=P(CCCl)(OCCCl)N1CCCCC1 (stereo not drawn)
inactive: dose: 50.0 mg/kg/injection, schedule: Q04DX003 (ip), vehicle: saline 104 % of control | [9] 93 % of control | [10] 104 % of control | [11] 96 % of control | [12] 102 % of control | dose: 400.0 mg/kg/injection, schedule: Q01DX009 (ip), vehicle: saline 88 % of control | [13] 98 % of control

COc1ccccc1NC1=C(NC(C)=O)C(=O)c2ccccc2C1=O
inactive: [6] 95 % of control | [7] 95 % of control | [8] 97 % of control
